# Molecular target: Sodium-dependent serotonin transporter (Homo sapiens) (UniProt P31645)
# Settings: COS-7, at 100 nM
# Description: Inhibition of [3H]5-hydroxytryptamine reuptake at human SERT expressed in african green monkey COS7 cells at 100 nM
# 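Further: measures inhibition of [3H]5-hydroxytryptamine uptake through human SERT expressed in COS-7 cells.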
# Sodium-dependent serotonin transporter (Homo sapiens), sequence (P31645 whole entry, looked up): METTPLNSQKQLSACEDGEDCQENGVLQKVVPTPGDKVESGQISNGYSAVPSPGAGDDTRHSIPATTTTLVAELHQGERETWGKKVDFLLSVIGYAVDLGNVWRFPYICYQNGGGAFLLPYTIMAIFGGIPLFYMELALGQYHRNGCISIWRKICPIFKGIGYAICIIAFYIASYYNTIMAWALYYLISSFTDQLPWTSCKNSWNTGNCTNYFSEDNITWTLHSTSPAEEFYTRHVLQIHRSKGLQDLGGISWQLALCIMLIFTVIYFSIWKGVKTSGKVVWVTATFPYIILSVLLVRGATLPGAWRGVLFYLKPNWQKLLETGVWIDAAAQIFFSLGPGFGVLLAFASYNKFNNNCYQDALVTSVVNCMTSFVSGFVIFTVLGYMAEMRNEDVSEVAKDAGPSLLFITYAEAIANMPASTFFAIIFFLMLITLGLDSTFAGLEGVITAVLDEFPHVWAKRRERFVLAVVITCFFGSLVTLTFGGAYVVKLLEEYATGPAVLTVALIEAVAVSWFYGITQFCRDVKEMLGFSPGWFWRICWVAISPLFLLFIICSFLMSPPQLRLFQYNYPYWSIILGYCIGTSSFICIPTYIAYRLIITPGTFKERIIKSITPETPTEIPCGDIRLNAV
row,SMILES,inhibition
1,CN(C)CCCC1(c2ccccc2)OCc2cc(C#N)ccc21 (stereo unspecified),27.4%
2,CNCCCC1(c2ccc(F)cc2)OCc2ccccc21 (stereo unspecified),20.8%
3,CNCCCC1(c2ccccc2)OCc2ccccc21 (stereo unspecified),9.76%
4,CNCCCC1(c2ccccc2)OC(C)(C)c2ccccc21 (stereo unspecified),1.65%
5,CN(C)CCCC1(c2ccccc2)OCc2ccccc21 (stereo unspecified),8.66%
6,CNCCCC1(c2ccccc2)OCc2cc(C#N)ccc21 (stereo unspecified),53.9%
7,CNCCC(Oc1ccccc1OC)c1ccccc1 (stereo unspecified),12.8%

# Further lines, results first:
row,inhibition,SMILES
1,0.74%,CN(C)CCCC1(c2ccc(F)cc2)OC(C)(C)c2cc(C#N)ccc21 (stereo unspecified)
2,0.31%,CN(C)CCCC1(c2ccccc2)OC(C)(C)c2ccccc21 (stereo unspecified)
3,6.56%,CNCCCC1(c2ccc(F)cc2)OC(C)(C)c2cc(C#N)ccc21 (stereo unspecified)
4,3.89%,CNCCCC1(c2ccc(F)cc2)OC(C)(C)c2ccccc21 (stereo unspecified)
5,26.6%,CN(C)CCCC1(c2ccc(F)cc2)OCc2ccccc21 (stereo unspecified)
6,55.5%,CNCCCC1(c2ccc(F)cc2)OCc2cc(C#N)ccc21 (stereo unspecified)
7,7.23%,CNCCCC1(c2ccccc2)OC(C)(C)c2cc(C#N)ccc21 (stereo unspecified)
8,0.69%,CN(C)CCCC1(c2ccccc2)OC(C)(C)c2cc(C#N)ccc21 (stereo unspecified)
9,0.71%,CN(C)CCCC1(c2ccc(F)cc2)OC(C)(C)c2ccccc21 (stereo unspecified)

# From ChEMBL document CHEMBL1150287
